The target of the first experiment is T1, Glucocorticoid receptor (Rattus norvegicus) (UniProt P06536).
T1 sequence (whole entry): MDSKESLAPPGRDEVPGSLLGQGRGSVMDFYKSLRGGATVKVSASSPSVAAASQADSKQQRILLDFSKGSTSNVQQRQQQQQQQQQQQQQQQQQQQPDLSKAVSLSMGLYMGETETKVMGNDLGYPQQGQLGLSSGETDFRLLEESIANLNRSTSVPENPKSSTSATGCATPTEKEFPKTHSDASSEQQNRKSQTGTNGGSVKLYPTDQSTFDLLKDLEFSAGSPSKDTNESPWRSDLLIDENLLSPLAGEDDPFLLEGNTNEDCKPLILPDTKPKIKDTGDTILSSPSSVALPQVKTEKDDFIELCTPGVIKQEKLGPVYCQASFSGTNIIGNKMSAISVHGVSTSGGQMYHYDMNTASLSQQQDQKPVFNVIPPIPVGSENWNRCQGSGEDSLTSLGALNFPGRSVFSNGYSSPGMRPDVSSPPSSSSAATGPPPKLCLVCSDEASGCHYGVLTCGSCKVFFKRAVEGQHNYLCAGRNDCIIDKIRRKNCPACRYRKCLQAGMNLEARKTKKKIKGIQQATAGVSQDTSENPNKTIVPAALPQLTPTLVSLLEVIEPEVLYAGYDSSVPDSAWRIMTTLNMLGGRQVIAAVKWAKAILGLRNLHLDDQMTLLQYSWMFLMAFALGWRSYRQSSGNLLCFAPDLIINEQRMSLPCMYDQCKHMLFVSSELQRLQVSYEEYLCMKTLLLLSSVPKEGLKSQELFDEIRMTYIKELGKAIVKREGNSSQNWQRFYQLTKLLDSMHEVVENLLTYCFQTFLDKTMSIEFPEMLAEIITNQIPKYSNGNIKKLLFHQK
The experiment can be described thus: Relative binding affinity for glucocorticoid receptor of rat thymus cytosol by displacement of [3H]dexamethasone.
Consider `C[C@]12CCC(=O)C=C1CC[C@@H]1[C@@H]2[C@@H](O)C[C@@]2(C)[C@H]1CC[C@]2(O)C(=O)CO`, for which the Relative binding affinity was found to be 1.

For the next experiment, the target named is T1, Glucocorticoid receptor (Rattus norvegicus). In words: Relative binding affinity for glucocorticoid receptor of rat thymus cytosol by displacement of [3H]dexamethasone compared to cortisol.
In turn, `CCC(=O)OCC(=O)[C@@]1(OC(C)=O)CCC2C3CCC4=CC(=O)CCC4(C)C3C(O)CC21C` (stereo partly drawn) yielded a Relative binding affinity of 0.093.

As to `CCCCC(=O)O[C@]1(C(=O)CO)CCC2C3CCC4=CC(=O)CCC4(C)C3C(O)CC21C` (stereo partly drawn), the Relative binding affinity turned out to be 11.5.

`CC(=O)OCC(=O)[C@@]1(O)CC[C@H]2[C@@H]3CCC4=CC(=O)CC[C@]4(C)[C@H]3[C@@H](O)C[C@@]21C` gave a Relative binding affinity of 0.046.

Take `CCCCC(=O)O[C@]1(C(=O)COC(=O)CC)CCC2C3CCC4=CC(=O)CCC4(C)C3C(O)CC21C` (stereo partly drawn): the Relative binding affinity amounted to 1.17.

As to `CCCCC(=O)O[C@]1(C(=O)COC(C)=O)CCC2C3CCC4=CC(=O)CCC4(C)C3C(O)CC21C` (stereo partly drawn), the Relative binding affinity came to 0.76.

The compound `CC(=O)O[C@]1(C(=O)CO)CCC2C3CCC4=CC(=O)CCC4(C)C3C(O)CC21C` (stereo partly drawn) registered a Relative binding affinity of 1.14.

`CCCCC(=O)OCC(=O)[C@@]1(O)CCC2C3CCC4=CC(=O)CCC4(C)C3C(O)CC21C` (stereo partly drawn) gave a Relative binding affinity of 0.32.

`CCCC(=O)O[C@]1(C(=O)CO)CC[C@H]2[C@@H]3CCC4=CC(=O)CC[C@]4(C)[C@H]3[C@@H](O)C[C@@]21C` yielded a Relative binding affinity of 12.4.

For `CCCCC(=O)O[C@]1(C(=O)COC(=O)CCC)CCC2C3CCC4=CC(=O)CCC4(C)C3C(O)CC21C` (stereo partly drawn), the Relative binding affinity stood at 1.33.

Compound `CC(=O)OCC(=O)[C@@]1(OC(C)=O)CCC2C3CCC4=CC(=O)CCC4(C)C3C(O)CC21C` (stereo partly drawn) returned a Relative binding affinity of 0.036.

`CCCCC(=O)OCC(=O)[C@@]1(OC(C)=O)CCC2C3CCC4=CC(=O)CCC4(C)C3C(O)CC21C` (stereo partly drawn) displayed a Relative binding affinity of 0.272.

Compound `CCCC(=O)OCC(=O)[C@@]1(OC(C)=O)CCC2C3CCC4=CC(=O)CCC4(C)C3C(O)CC21C` (stereo partly drawn) registered a Relative binding affinity of 0.152.
